{"source": "patent US20110218188A1", "about": "“SUBSTITUTED (PYRIDYL)-AZINYLAMINE DERIVATIVES AS FUNGICIDES” (priority 2008, published 2011)", "data": [{"assay": "Measurement of logP values by HPLC on reversed phase columns (EEC directive 79/831 Annex V.A8)", "type": "physicochemical", "settings": "pH 2.3", "values": [{"smiles": "CCCN(CCC#N)C(=O)c1cc(-c2ncnc(Nc3cccc(Cl)c3)n2)ccn1", "note": "[B182]", "logP [b]": "3.13[b]"}]}, {"assay": "Measurement of logP values by HPLC on reversed phase columns (EEC directive 79/831 Annex V.A8)", "type": "physicochemical", "settings": "pH 2.7", "values": [{"smiles": "C#CC(C)ON=C(C)c1cc(-c2ncnc(Nc3cccc(Cl)c3)n2)ccn1", "note": "(mixture of isomers) [B30]", "logP": 4.47}, {"smiles": "CCON=C(C)c1cc(-c2ncnc(Nc3cccc(Cl)c3)n2)ccn1", "note": "(mixture of isomers) [B31]", "logP": 4.7}, {"smiles": "CC(=NOCCN(C)C)c1cc(-c2ncnc(Nc3cccc(Cl)c3)n2)ccn1", "note": "(mixture of isomers) [B32]", "logP": 1.99}, {"smiles": "CCCC#CCON=C(C)c1cc(-c2ncnc(Nc3cccc(Cl)c3)n2)ccn1", "note": "(mixture of isomers) [B35]", "logP": 5.16}, {"smiles": "CC(=NOCc1c(Cl)cccc1Cl)c1cc(-c2ncnc(Nc3cccc(Cl)c3)n2)ccn1", "note": "(mixture of isomers) [B39]", "logP": 6.02}, {"smiles": "C#CC(C)ON=C(CC)c1cc(-c2ncnc(Nc3cccc(Cl)c3)n2)ccn1", "note": "(mixture of isomers) [B42]", "logP": 4.87}, {"smiles": "CC(=NOCC(C)C)c1cc(-c2ncnc(Nc3cccc(Cl)c3)n2)ccn1", "note": "(mixture of isomers) [B44]", "logP": 5.63}, {"smiles": "CCC(=NOC1CCCC1)c1cc(-c2ncnc(Nc3cccc(Cl)c3)n2)ccn1", "note": "(mixture of isomers) [B47]", "logP": 6.39}, {"smiles": "CCC(=NOCCN(C)C)c1cc(-c2ncnc(Nc3cccc(Cl)c3)n2)ccn1", "note": "(mixture of isomers) [B49]", "logP": 2.06}, {"smiles": "CC(=NOCc1ccccc1)c1cc(-c2ncnc(Nc3cccc(Cl)c3)n2)ccn1", "note": "(mixture of isomers) [B50]", "logP": 5.18}, {"smiles": "CC#CCON=C(CC)c1cc(-c2ncnc(Nc3cccc(Cl)c3)n2)ccn1", "note": "(mixture of isomers) [B53]", "logP": 4.91}, {"smiles": "CCC(=NOCC(F)(F)F)c1cc(-c2ncnc(Nc3cccc(Cl)c3)n2)ccn1", "note": "(mixture of isomers) [B58]", "logP": 5.39}, {"smiles": "COc1ccc(CON=C(C)c2cc(-c3ncnc(Nc4cccc(Cl)c4)n3)ccn2)cc1", "note": "(mixture of isomers) [B60]", "logP": 4.96}, {"smiles": "CCC(=NOCC(C)C)c1cc(-c2ncnc(Nc3cccc(Cl)c3)n2)ccn1", "note": "(mixture of isomers) [B65]", "logP": 6.19}, {"smiles": "CCC(=NOCc1ccc(OC)cc1)c1cc(-c2ncnc(Nc3cccc(Cl)c3)n2)ccn1", "note": "(mixture of isomers) [B68]", "logP": 5.46}, {"smiles": "CCC(=NOCc1c(Cl)cccc1Cl)c1cc(-c2ncnc(Nc3cccc(Cl)c3)n2)ccn1", "note": "(mixture of isomers) [B69]", "logP": 6.53}, {"smiles": "CCC(=NOCc1ccc(Cl)cc1)c1cc(-c2ncnc(Nc3cccc(Cl)c3)n2)ccn1", "note": "(mixture of isomers) [B70]", "logP": 6.22}, {"smiles": "CCC(=NOCc1ccccc1)c1cc(-c2ncnc(Nc3cccc(Cl)c3)n2)ccn1", "note": "(mixture of isomers) [B72]", "logP": 5.65}, {"smiles": "CC(=NOCC(F)(F)F)c1cc(-c2ncnc(Nc3cccc(Cl)c3)n2)ccn1", "note": "(mixture of isomers) [B73]", "logP": 4.58}, {"smiles": "CCC(=NOC(C1CC1)C1CC1)c1cc(-c2ncnc(Nc3cccc(Cl)c3)n2)ccn1", "note": "(mixture of isomers) [B79]", "logP": 6.59}, {"smiles": "C#CCON=C(CC)c1cc(-c2ncnc(Nc3cccc(Cl)c3)n2)ccn1", "note": "(mixture of isomers) [B80]", "logP": 4.73}, {"smiles": "CCC(=NOC(C)C1CC1)c1cc(-c2ncnc(Nc3cccc(Cl)c3)n2)ccn1", "note": "(mixture of isomers) [B84]", "logP": 6.24}, {"smiles": "C=CCON=C(C)c1cc(-c2ncnc(Nc3cccc(Cl)c3)n2)ccn1", "note": "(mixture of isomers) [Example B29]", "logP": 4.7}, {"smiles": "CC(=NOCC1CC1)c1cc(-c2ncnc(Nc3cccc(Cl)c3)n2)ccn1", "note": "(mixture of isomers) [Example B34]", "logP": 4.94}, {"smiles": "CC#CCON=C(C)c1cc(-c2ncnc(Nc3cccc(Cl)c3)n2)ccn1", "note": "(mixture of isomers) [Example B36]", "logP": 4.41}, {"smiles": "C#CCON=C(C)c1cc(-c2ncnc(Nc3cccc(Cl)c3)n2)ccn1", "note": "(mixture of isomers) [Example B37]", "logP": 3.98}, {"smiles": "CC(=NOC1CCCC1)c1cc(-c2ncnc(Nc3cccc(Cl)c3)n2)ccn1", "note": "(mixture of isomers) [Example B38]", "logP": 5.79}, {"smiles": "CCON=C(CC)c1cc(-c2ncnc(Nc3cccc(Cl)c3)n2)ccn1", "note": "(mixture of isomers) [Example B40]", "logP": 5.1}, {"smiles": "C=CCON=C(CC)c1cc(-c2ncnc(Nc3cccc(Cl)c3)n2)ccn1", "note": "(mixture of isomers) [Example B41]", "logP": 5.14}, {"smiles": "CCCON=C(C)c1cc(-c2ncnc(Nc3cccc(Cl)c3)n2)ccn1", "note": "(mixture of isomers) [Example B43]", "logP": 5.13}, {"smiles": "CCCC#CCON=C(CC)c1cc(-c2ncnc(Nc3cccc(Cl)c3)n2)ccn1", "note": "(mixture of isomers) [Example B46]", "logP": 5.81}, {"smiles": "CC(=NOC(C1CC1)C1CC1)c1cc(-c2ncnc(Nc3cccc(Cl)c3)n2)ccn1", "note": "(mixture of isomers) [Example B48]", "logP": 5.64}, {"smiles": "CCC(=NOCC1CC1)c1cc(-c2ncnc(Nc3cccc(Cl)c3)n2)ccn1", "note": "(mixture of isomers) [Example B54]", "logP": 5.49}, {"smiles": "CCC(=NO)c1cc(-c2ncnc(Nc3cccc(Cl)c3)n2)ccn1", "note": "(mixture of isomers) [Example B64]", "logP": 3.24}, {"smiles": "CC(=NO)c1cc(-c2ncnc(Nc3cccc(Cl)c3)n2)ccn1", "note": "(mixture of isomers) [Example B74]", "logP": 2.8}, {"smiles": "CCC(=NOC)c1cc(-c2ncnc(Nc3cccc(Cl)c3)n2)ccn1", "note": "(mixture of isomers) [Example B85]", "logP": 4.81}, {"smiles": "COCC(C)NC(=O)c1cc(-c2ncnc(Nc3cccc(Cl)c3)n2)ccn1", "note": "(stereo not drawn) [B51]", "logP": 3.21}, {"smiles": "COC[C@H](C)NC(=O)c1cc(-c2ncnc(Nc3cccc(Cl)c3)n2)ccn1", "note": "[B52]", "logP": 3.39}, {"smiles": "O=C(NC1CCCCC1)c1cc(-c2ncnc(Nc3cccc(Cl)c3)n2)ccn1", "note": "[B56]", "logP": 4.46}, {"smiles": "COCCNC(=O)c1cc(-c2ncnc(Nc3cccc(Cl)c3)n2)ccn1", "note": "[B59]", "logP": 2.84}, {"smiles": "CC(C)CCNC(=O)c1cc(-c2ncnc(Nc3cccc(Cl)c3)n2)ccn1", "note": "[B61]", "logP": 4.3}, {"smiles": "CC(C)C(C)NC(=O)c1cc(-c2ncnc(Nc3cccc(Cl)c3)n2)ccn1", "note": "(stereo not drawn) [B62]", "logP": 4.3}, {"smiles": "CCC(CC)NC(=O)c1cc(-c2ncnc(Nc3cccc(Cl)c3)n2)ccn1", "note": "[B63]", "logP": 4.22}, {"smiles": "CC(CN(C)C)NC(=O)c1cc(-c2ncnc(Nc3cccc(Cl)c3)n2)ccn1", "note": "(stereo not drawn) [B66]", "logP": 1.72}, {"smiles": "CCCCCNC(=O)c1cc(-c2ncnc(Nc3cccc(Cl)c3)n2)ccn1", "note": "[B67]", "logP": 4.35}, {"smiles": "O=C(NC1CCCC1)c1cc(-c2ncnc(Nc3cccc(Cl)c3)n2)ccn1", "note": "[B71]", "logP": 4.03}, {"smiles": "COC(=O)NN=C(C)c1cc(-c2ncnc(Nc3cccc(Cl)c3)n2)ccn1", "note": "[B83]", "logP": 2.86}, {"smiles": "COCC(COC)NC(=O)c1cc(-c2ncnc(Nc3cccc(Cl)c3)n2)ccn1", "note": "[B86]", "logP": 3.39}, {"smiles": "COCCCNC(=O)c1cc(-c2ncnc(Nc3cccc(Cl)c3)n2)ccn1", "note": "[B88]", "logP": 3.15}, {"smiles": "CCC(COC)NC(=O)c1cc(-c2ncnc(Nc3cccc(Cl)c3)n2)ccn1", "note": "(stereo not drawn) [B89]", "logP": 3.8}, {"smiles": "CC(=NNc1ncc(C(F)(F)F)cc1Cl)c1cc(-c2ncnc(Nc3cccc(Cl)c3)n2)ccn1", "note": "[B90]", "logP": 5.46}, {"smiles": "CCNC(=O)c1cc(-c2ncnc(Nc3cccc(Cl)c3)n2)ccn1", "note": "[B92]", "logP": 3.17}, {"smiles": "O=C(NCCCCN1CCCC1=O)c1cc(-c2ncnc(Nc3cccc(Cl)c3)n2)ccn1", "note": "[B96]", "logP": 2.73}, {"smiles": "CC(C)(C)NC(=O)c1cc(-c2ncnc(Nc3cccc(Cl)c3)n2)ccn1", "note": "[B98]", "logP": 4.39}, {"smiles": "O=C(NCC1CC1)c1cc(-c2ncnc(Nc3cccc(Cl)c3)n2)ccn1", "note": "[B99]", "logP": 3.73}, {"smiles": "O=C(NCCCN1CCCC1=O)c1cc(-c2ncnc(Nc3cccc(Cl)c3)n2)ccn1", "note": "[B100]", "logP": 2.63}, {"smiles": "O=C(NC1CCS(=O)(=O)C1)c1cc(-c2ncnc(Nc3cccc(Cl)c3)n2)ccn1", "note": "(stereo not drawn) [B101]", "logP": 2.66}, {"smiles": "CCCNC(=O)c1cc(-c2ncnc(Nc3cccc(Cl)c3)n2)ccn1", "note": "[B103]", "logP": 3.62}, {"smiles": "CCCC(=O)O/N=C(/N)c1cc(-c2ncnc(Nc3cccc(Cl)c3)n2)ccn1", "note": "[B106]", "logP": 3.8}, {"smiles": "CC(C)C(=O)O/N=C(/N)c1cc(-c2ncnc(Nc3cccc(Cl)c3)n2)ccn1", "note": "[B107]", "logP": 3.69}, {"smiles": "CCC(=O)O/N=C(/N)c1cc(-c2ncnc(Nc3cccc(Cl)c3)n2)ccn1", "note": "[B108]", "logP": 3.33}, {"smiles": "CC(=O)O/N=C(/N)c1cc(-c2ncnc(Nc3cccc(Cl)c3)n2)ccn1", "note": "[B109]", "logP": 2.95}, {"smiles": "O=C(NC1COC1)c1cc(-c2ncnc(Nc3cccc(Cl)c3)n2)ccn1", "note": "[B112]", "logP": 2.6}, {"smiles": "O=C(NCC(F)(F)F)c1cc(-c2ncnc(Nc3cccc(Cl)c3)n2)ccn1", "note": "[B117]", "logP": 3.67}, {"smiles": "O=C(c1cc(-c2ncnc(Nc3cccc(Cl)c3)n2)ccn1)N1CCC(C(F)(F)F)CC1", "note": "[B120]", "logP": 3.55}, {"smiles": "O=C(NCCC(F)(F)F)c1cc(-c2ncnc(Nc3cccc(Cl)c3)n2)ccn1", "note": "[B121]", "logP": 3.73}, {"smiles": "CCN1CCCC(NC(=O)c2cc(-c3ncnc(Nc4cccc(Cl)c4)n3)ccn2)C1", "note": "(stereo not drawn) [B122]", "logP": 1.82}, {"smiles": "CC1CN(C(=O)c2cc(-c3ncnc(Nc4cccc(Cl)c4)n3)ccn2)CC(C)O1", "note": "(stereo not drawn) [B154]", "logP": 2.92}, {"smiles": "O=C1CN(C(=O)c2cc(-c3ncnc(Nc4cccc(Cl)c4)n3)ccn2)CN1", "note": "[B168]", "logP": 2.15}, {"smiles": "CCCCCCN(CCCCCC)C(=O)c1cc(-c2ncnc(Nc3cccc(Cl)c3)n2)ccn1", "note": "[B174]", "logP": 6.69}, {"smiles": "CCCCN(CCCC)C(=O)c1cc(-c2ncnc(Nc3cccc(Cl)c3)n2)ccn1", "note": "[B175]", "logP": 4.75}, {"smiles": "O=C(c1cc(-c2ncnc(Nc3cccc(Cl)c3)n2)ccn1)N1CCSCC1", "note": "[B176]", "logP": 2.98}, {"smiles": "O=C(c1cc(-c2ncnc(Nc3cccc(Cl)c3)n2)ccn1)N1CCC(O)C1", "note": "(stereo not drawn) [B177]", "logP": 2.07}, {"smiles": "O=CNCCCNC(=O)c1cc(-c2ncnc(Nc3cccc(Cl)c3)n2)ccn1", "note": "[B178]", "logP": 2.26}, {"smiles": "O=C(c1cc(-c2ncnc(Nc3ccc(F)c(Cl)c3)n2)ccn1)N1CCCC1", "note": "[B190]", "logP": 3}, {"smiles": "COCC(C)NC(=O)c1cc(-c2ncnc(Nc3ccc(F)c(Cl)c3)n2)ccn1", "note": "(stereo not drawn) [B191]", "logP": 3.48}, {"smiles": "COCCNC(=O)c1cc(-c2ncnc(Nc3ccc(F)c(Cl)c3)n2)ccn1", "note": "[B193]", "logP": 3.08}, {"smiles": "CC(C)NC(=O)c1cc(-c2ncnc(Nc3ccc(F)c(Cl)c3)n2)ccn1", "note": "[B196]", "logP": 3.73}, {"smiles": "O=C(NCC1CC1)c1cc(-c2ncnc(Nc3ccc(F)c(Cl)c3)n2)ccn1", "note": "[B198]", "logP": 3.83}, {"smiles": "O=C(NC1CCC1)c1cc(-c2ncnc(Nc3ccc(F)c(Cl)c3)n2)ccn1", "note": "[B199]", "logP": 3.94}]}]}
